# The supplement of paper PMC11208160
# Experiment: recombinant barcode read abundance after kanamycin selection (control-corrected) (log10(CPM+1)); higher = more efficient recombination; sequences stand for … in AGTGCAGAGAAAATCGGCCAGTTTTCTCTGCCTGCAGTCCGCATGCCGT…AGATTTATGCAGCGGACTGCCTTTCTCCCAAAGTGATAAACCGGACAGTATCATGGACCGGTTTTCCCGGTAATCCGTATTTGCAAGGTTGGTTTCACT; site = the 11-nt target
# Method in brief: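 The screen was pooled in E. coli and paired targets with IS621 bridge RNA target-binding loops. Recombination efficiency is taken from barcode counts per million at recombinant junctions, averaged and adjusted against the control. Values, in the form log10(CPM+1), come from duplicate plating on chloramphenicol/ampicillin LB agar or on chloramphenicol/ampicillin/kanamycin with 0.1 mM IPTG.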
# 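Also: IS621 recombinase and bridge RNA in Escherichia coli cells.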
row,Sequence,recombinant barcode read abundance (log10)
1,CTAAAACCTTGGGTTCTAACCTGTTGCCT (site ATAAAACCTAG),0.0167
2,CTAAAACCTTGGGTTCTAACCTGTTGCCT (site CTAAAACCTAG),1
3,CTAAAACCTTGGGTTCTAACCTGTTGCCT (site GTAAAACCTAG),0.0969
4,CTAAAACCTTGGGTTCTAACCTGTTGCCT (site TTAAAACCTAG),0.218
5,CTAAAGTCTTGGGTTCTAACCTGTTGCCA (site CTAAAGTCTTG),0.399
6,CTAAAGTCTTGGGTTCTAACCTGTTGCCA (site GTAAAGTCTTG),0.0268
7,CTAAATACTTGGGTTCTAACCTGTTGCTA (site CTAAATACTAG),0.835
8,CTAAATACTTGGGTTCTAACCTGTTGCTA (site CTAAATACTTA),0.126
9,CTAACCACTTGGGTTCTAACCTGTTGCCA (site CTAACCACTTG),0.329
10,CTAACCACTTGGGTTCTAACCTGTTGCCA (site CTAACTACTAG),0.0393
11,CTAACCTCTTGGGTTCTAACCTGTTGCTC (site CTAACCTCTAA),0.0754
12,CTAACCTCTTGGGTTCTAACCTGTTGCTC (site CTAACCTCTCA),0.0593
13,CTAACCTCTTGGGTTCTAACCTGTTGCTC (site CTAACCTCTGA),1.66
14,CTAACCTCTTGGGTTCTAACCTGTTGCTC (site CTAACCTCTTA),0.0437
15,CTAACCTCTTGGGTTCTAACCTGTTGCTG (site CTAACCTCTAA),0.0311
16,CTAACCTCTTGGGTTCTAACCTGTTGCTG (site CTAACCTCTCA),1.49
17,CTAACCTCTTGGGTTCTAACCTGTTGCTG (site CTAACCTCTGA),0.0869
18,CTAACCTCTTGGGTTCTAACCTGTTGCTG (site CTAACCTCTTA),0.0665
19,CTAACTACTTGGGTTCTAACCTGTTGCCT (site CTAACCACTTG),0
20,CTAACTACTTGGGTTCTAACCTGTTGCCT (site CTAACTACTAG),0.26
21,CTAACTACTTGGGTTCTAACCTGTTGCGT (site CTAACTACTAC),0.181
22,CTAACTACTTGGGTTCTAACCTGTTGCGT (site GAGGTGCCTCA),0.0974

row,Sequence,recombinant barcode read abundance (log10)
1,CTAAGAACTTGGGTTCTAACCTGTTGCTT (site CTAAGAACTAA),0.254
2,CTAAGAACTTGGGTTCTAACCTGTTGCTT (site CTAAGAACTAC),0.509
3,CTAAGAACTTGGGTTCTAACCTGTTGCTT (site CTAAGAACTAG),0.135
4,CTAAGAACTTGGGTTCTAACCTGTTGCTT (site CTAAGAACTAT),0.086
5,CTAAGAGCTTGGGTTCTAACCTGTTGCAG (site CTAAGAGCTCG),0.123
6,CTAAGAGCTTGGGTTCTAACCTGTTGCAG (site CTAAGAGCTCT),1.98
7,CTAAGCGCTTGGGTTCTAACCTGTTGCCT (site AGTCAGACTGT),0.463
8,CTAAGCGCTTGGGTTCTAACCTGTTGCCT (site CTAAGCGCTAG),0.346
9,CTAAGCTCTTGGGTTCTAACCTGTTGCCT (site ATAAGCTCTAG),0.129
10,CTAAGCTCTTGGGTTCTAACCTGTTGCCT (site CTAAGCTCTAG),0.756
11,CTAAGCTCTTGGGTTCTAACCTGTTGCCT (site GTAAGCTCTAG),0.0807
12,CTAAGCTCTTGGGTTCTAACCTGTTGCCT (site TTAAGCTCTAG),0.201
13,CTAAGCTCTTGGGTTCTAACCTGTTGCTC (site CTAAGCTCTAA),0.537
14,CTAAGCTCTTGGGTTCTAACCTGTTGCTC (site CTAAGCTCTCA),0.0828
15,CTAAGCTCTTGGGTTCTAACCTGTTGCTC (site CTAAGCTCTGA),1.03
16,CTAAGCTCTTGGGTTCTAACCTGTTGCTC (site CTAAGCTCTTA),0.119
17,CTAAGGTCTTGGGTTCTAACCTGTTGCCT (site CTAAGGTCTAA),0.745
18,CTAAGGTCTTGGGTTCTAACCTGTTGCCT (site CTAAGGTCTAC),0.122
19,CTAAGGTCTTGGGTTCTAACCTGTTGCCT (site CTAAGGTCTAG),0.923
20,CTAAGGTCTTGGGTTCTAACCTGTTGCCT (site CTAAGGTCTAT),0.222
21,CTAATACCTTGGGTTCTAACCTGTTGCGT (site CTAATACCTAC),1.04
22,CTAATACCTTGGGTTCTAACCTGTTGCGT (site CTCATACCTAC),0.0518

row,Sequence,recombinant barcode read abundance (log10)
1,CTAATGTCTTGGGTTCTAACCTGTTGCCT (site CTAATGTCTAG),1.65
2,CTAATGTCTTGGGTTCTAACCTGTTGCCT (site CTAATGTCTTG),0.0145
3,CTAATTGCTTGGGTTCTAACCTGTTGCAA (site CTAATTGCTTT),0.0868
4,CTAATTGCTTGGGTTCTAACCTGTTGCAA (site CTACTTGCTTT),0.0139
5,CTAATTGCTTGGGTTCTAACCTGTTGCAA (site CTAGTTGCTTT),0.344
6,CTAATTGCTTGGGTTCTAACCTGTTGCAA (site CTATTTGCTTT),0.0237
7,CTACAATCTTGGGTTCTAACCTGTTGCAT (site CTACAATCTAA),0.192
8,CTACAATCTTGGGTTCTAACCTGTTGCAT (site CTACAATCTAT),1.51
9,CTACAATCTTGGGTTCTAACCTGTTGCTT (site CTACAATCTAA),1.17
10,CTACAATCTTGGGTTCTAACCTGTTGCTT (site CTACAATCTAT),0.816
11,CTACACCCTTGGGTTCTAACCTGTTGCTT (site CTACAACCTAA),0.0455
12,CTACACCCTTGGGTTCTAACCTGTTGCTT (site CTACACCCTAA),1.39
13,CTACACCCTTGGGTTCTAACCTGTTGCTT (site CTACAGCCTAA),0.296
14,CTACACCCTTGGGTTCTAACCTGTTGCTT (site CTACATCCTAA),0.22
15,CTACAGGCTTGGGTTCTAACCTGTTGCAC (site CTACAGGCTGT),1
16,CTACAGGCTTGGGTTCTAACCTGTTGCAC (site GAGTCTTCTTG),0.165
17,CTACCACCTTGGGTTCTAACCTGTTGCCT (site CTACCAACTAG),0.16
18,CTACCACCTTGGGTTCTAACCTGTTGCCT (site CTACCACCTAG),1.8
19,CTACCACCTTGGGTTCTAACCTGTTGCCT (site CTACCAGCTAG),0.0722
20,CTACCACCTTGGGTTCTAACCTGTTGCCT (site CTACCATCTAG),0.214
21,CTACCATCTTGGGTTCTAACCTGTTGCCT (site CTACCAACTAG),0.0518
22,CTACCATCTTGGGTTCTAACCTGTTGCCT (site CTACCACCTAG),0.0894

row,Sequence,recombinant barcode read abundance (log10)
1,CTACCATCTTGGGTTCTAACCTGTTGCCT (site CTACCAGCTAG),0.278
2,CTACCATCTTGGGTTCTAACCTGTTGCCT (site CTACCATCTAG),0.948
3,CTACCGTCTTGGGTTCTAACCTGTTGCGG (site CTACCATCTCG),0.285
4,CTACCGTCTTGGGTTCTAACCTGTTGCGG (site CTACCGTCTCC),1.97
5,CTACCTCCTTGGGTTCTAACCTGTTGCGT (site CTACCTCCTAC),1.16
6,CTACCTCCTTGGGTTCTAACCTGTTGCGT (site CTACTTCCTAC),0.37
7,CTACGAACTTGGGTTCTAACCTGTTGCTG (site CTACGAACTCA),1.53
8,CTACGAACTTGGGTTCTAACCTGTTGCTG (site CTACGCACTCA),0.167
9,CTACGAACTTGGGTTCTAACCTGTTGCTG (site CTACGGACTCA),0.102
10,CTACGAACTTGGGTTCTAACCTGTTGCTG (site CTACGTACTCA),0.142
11,CTACGTCCTTGGGTTCTAACCTGTTGCTG (site CTACGTCCTAA),0.0384
12,CTACGTCCTTGGGTTCTAACCTGTTGCTG (site CTACGTCCTCA),1.64
13,CTACGTCCTTGGGTTCTAACCTGTTGCTG (site CTACGTCCTGA),0.203
14,CTACGTCCTTGGGTTCTAACCTGTTGCTG (site CTACGTCCTTA),0.0883
15,CTACGTCCTTGGGTTCTAACCTGTTGCTT (site CTACGTCCTAA),1.04
16,CTACGTCCTTGGGTTCTAACCTGTTGCTT (site CTACGTCCTCA),0.14
17,CTACGTCCTTGGGTTCTAACCTGTTGCTT (site CTACGTCCTGA),0.297
18,CTACGTCCTTGGGTTCTAACCTGTTGCTT (site CTACGTCCTTA),0.0433
19,CTACGTTCTTGGGTTCTAACCTGTTGCCT (site CCACGTTCTAG),0.761
20,CTACGTTCTTGGGTTCTAACCTGTTGCCT (site CTACGTTCTAG),1.05
